Measurements reported in US20170333591A9, “ABSORBENT ARTICLE COMPRISING MALODOR REDUCTION COMPOSITIONS” (The Procter & Gamble Company, priority 2014, published 2017).

Test: Log of liquid dish neat product liquid-air partition coefficient
Assay type: physicochemical
Conditions: for Log of liquid dish neat product liquid-air partition coefficient (Comment Code K/L): code letter within the Comment Code cell

| Compound | Log of liquid dish neat product liquid-air partition coefficient (Comment Code K/L) | Comment Code: Log of liquid dish neat product liquid-air partition coefficient |
| --- | --- | --- |
| c1ccc2c(c1)CC1COCOC21 (centres unmarked) [Material 247] | K (Log of liquid dish neat product liquid-air partition coefficient greater than or equal to 7) |  |
| CC1(C)C2=C(CO)CCC(C)(C)C23CCC1C3 (centres unmarked) [Material 248] |  | K (Log of liquid dish neat product liquid-air partition coefficient greater than or equal to 7) |
| CC(CCO)CCCC(C)(C)O (centres unmarked) [Material 249] | K (Log of liquid dish neat product liquid-air partition coefficient greater than or equal to 7) |  |
| CC(CO)C1CCCCCCCCCCC1 (centres unmarked) [Material 252] | K (Log of liquid dish neat product liquid-air partition coefficient greater than or equal to 7) |  |
| OCCCc1ccccc1 [Material 254] | K (Log of liquid dish neat product liquid-air partition coefficient greater than or equal to 7) |  |
| O=C(O)CCc1ccccc1 [Material 255] |  | K (Log of liquid dish neat product liquid-air partition coefficient greater than or equal to 7) |
| COC(OC)C(C)c1ccccc1 (centres unmarked) [Material 256] | K (Log of liquid dish neat product liquid-air partition coefficient greater than or equal to 7) |  |
| CCC1=C(O)C(=O)C(C)O1 (centres unmarked) [Material 259] | K (Log of liquid dish neat product liquid-air partition coefficient greater than or equal to 7) |  |
| CC1(C)CCc2ccc(CCC=O)cc21 [Material 260] | K (Log of liquid dish neat product liquid-air partition coefficient greater than or equal to 7) | K (Log of liquid dish neat product liquid-air partition coefficient greater than or equal to 7) |
| CC1(C)CCc2ccc(CCC=O)cc21 [Material 261] | K (Log of liquid dish neat product liquid-air partition coefficient greater than or equal to 7) | K (Log of liquid dish neat product liquid-air partition coefficient greater than or equal to 7) |
| CCCCCCCC(=O)OCCCCCC [Material 263] | K (Log of liquid dish neat product liquid-air partition coefficient greater than or equal to 7) |  |
| CCCCCCOC(=O)c1ccccc1 [Material 271] | K (Log of liquid dish neat product liquid-air partition coefficient greater than or equal to 7) |  |
| CC=C(C)C(=O)OCCC=CCC [Material 274] | K (Log of liquid dish neat product liquid-air partition coefficient greater than or equal to 7) |  |
| CCCCCCOC(=O)c1ccco1 [Material 275] |  | K (Log of liquid dish neat product liquid-air partition coefficient greater than or equal to 7) |
| O=C1CCCCCCCCCCCCCCCO1 [Material 277] | K (Log of liquid dish neat product liquid-air partition coefficient greater than or equal to 7) |  |
| CCOC(=O)C1C2C=CC(C2)C1C(C)C (centres unmarked) [Material 280] | K (Log of liquid dish neat product liquid-air partition coefficient greater than or equal to 7) |  |
| CC(=O)OC1CC2CC1C1CC=CC21 (centres unmarked) [Material 281] | K (Log of liquid dish neat product liquid-air partition coefficient greater than or equal to 7) | K (Log of liquid dish neat product liquid-air partition coefficient greater than or equal to 7) |
| O=Cc1ccc2c(c1)OCO2 [Material 287] |  | K (Log of liquid dish neat product liquid-air partition coefficient greater than or equal to 7) |
| CC(C=O)Cc1ccc2c(c1)OCO2 (centres unmarked) [Material 288] | K (Log of liquid dish neat product liquid-air partition coefficient greater than or equal to 7) |  |
| O=C1CCCCCCCCCC/C=C/CCO1 [Material 289] | K (Log of liquid dish neat product liquid-air partition coefficient greater than or equal to 7) |  |
| CC1CCC(C(C)(C)O)CC2=C1CCC2C (centres unmarked) [Material 292] | K (Log of liquid dish neat product liquid-air partition coefficient greater than or equal to 7) |  |
| CCC(=O)CCC1C(C)=CCCC1(C)C (centres unmarked) [Material 293] | K (Log of liquid dish neat product liquid-air partition coefficient greater than or equal to 7) |  |
| CCOC(=O)C1C(CC)=CCCC1(C)C (centres unmarked) [Material 294] | K (Log of liquid dish neat product liquid-air partition coefficient greater than or equal to 7) |  |
| CC1=CCC(=C(C)C)CCC(C)=CCC1 [Material 295] | K (Log of liquid dish neat product liquid-air partition coefficient greater than or equal to 7) |  |

| Compound | Log of liquid dish neat product liquid-air partition coefficient (Comment Code K/L) | Comment Code: Log of liquid dish neat product liquid-air partition coefficient |
| --- | --- | --- |
| C=C1C=CC(C(C)C)CCC(C)=CCC1 (centres unmarked) [Material 296] | K (Log of liquid dish neat product liquid-air partition coefficient greater than or equal to 7) |  |
| CC(C)=CCC/C(C)=C/COC=O [Material 306] |  | K (Log of liquid dish neat product liquid-air partition coefficient greater than or equal to 7) |
| CCC(C)C(=O)N(C)c1ccccc1 (centres unmarked) [Material 314] |  | K (Log of liquid dish neat product liquid-air partition coefficient greater than or equal to 7) |
| CC(=O)OC1(C)CCC(=C(C)C)CC1 (centres unmarked) [Material 317] | K (Log of liquid dish neat product liquid-air partition coefficient greater than or equal to 7) |  |
| CC(C)=C1CCC(C)(O)CC1 (centres unmarked) [Material 318] | K (Log of liquid dish neat product liquid-air partition coefficient greater than or equal to 7) |  |
| C=C1CCCC(C)(C)C1C=CC(C)=O (centres unmarked) [Material 324] | K (Log of liquid dish neat product liquid-air partition coefficient greater than or equal to 7) |  |
| CC1=C2CC(C(C)(C)O)CCC2(C)CCC1 (centres unmarked) [Material 329] | K (Log of liquid dish neat product liquid-air partition coefficient greater than or equal to 7) | K (Log of liquid dish neat product liquid-air partition coefficient greater than or equal to 7) |
| CCCCCCCCC1CCC(=O)O1 (centres unmarked) [Material 330] | K (Log of liquid dish neat product liquid-air partition coefficient greater than or equal to 7) |  |
| C=C1CCCC(C)(C)C1C(=O)C=CC (centres unmarked) [Material 331] | K (Log of liquid dish neat product liquid-air partition coefficient greater than or equal to 7) |  |
| C=CCCC(=O)C1CCCC(C)(C)C1 (centres unmarked) [Material 334] | K (Log of liquid dish neat product liquid-air partition coefficient greater than or equal to 7) |  |
| CC1COCc2cc3c(cc21)C(C)(C)C(C)C3(C)C (centres unmarked) [Material 335] | K (Log of liquid dish neat product liquid-air partition coefficient greater than or equal to 7) | K (Log of liquid dish neat product liquid-air partition coefficient greater than or equal to 7) |
| CCCCCCCC(=O)OCc1ccco1 [Material 336] | K (Log of liquid dish neat product liquid-air partition coefficient greater than or equal to 7) |  |
| CCCCCC(=O)OCc1ccco1 [Material 338] | K (Log of liquid dish neat product liquid-air partition coefficient greater than or equal to 7) |  |
| CCCCCCC(=O)OCc1ccco1 [Material 339] | K (Log of liquid dish neat product liquid-air partition coefficient greater than or equal to 7) |  |
| CCC(=O)OC1CC2C3C=CCC3C1C2(C)C (centres unmarked) [Material 343] | K (Log of liquid dish neat product liquid-air partition coefficient greater than or equal to 7) | K (Log of liquid dish neat product liquid-air partition coefficient greater than or equal to 7) |
| CCOC(=O)C12CCCC1C1CCC2C1 (centres unmarked) [Material 344] | K (Log of liquid dish neat product liquid-air partition coefficient greater than or equal to 7) |  |
| CCOC(=O)C1CCC(C(=O)OCC)CC1 (centres unmarked) [Material 347] | K (Log of liquid dish neat product liquid-air partition coefficient greater than or equal to 7) |  |
| CC(C)CC1CC(C)(O)CCO1 (centres unmarked) [Material 350] | K (Log of liquid dish neat product liquid-air partition coefficient greater than or equal to 7) |  |
| C=CCCCCCCCCC#N [Material 352] | K (Log of liquid dish neat product liquid-air partition coefficient greater than or equal to 7) |  |
| C/C=C1/CC2CC1C1CCC(=O)OC21 (centres unmarked) [Material 353] | K (Log of liquid dish neat product liquid-air partition coefficient greater than or equal to 7) | K (Log of liquid dish neat product liquid-air partition coefficient greater than or equal to 7) |
| CCc1ccccc1CC(C)(C)C=O [Material 354] |  | K (Log of liquid dish neat product liquid-air partition coefficient greater than or equal to 7) |
| CCOC(=O)OC1CCCCC1C(C)(C)C (centres unmarked) [Material 355] |  | K (Log of liquid dish neat product liquid-air partition coefficient greater than or equal to 7) |
| CCc1ccccc1CC(C)(C)C=O [Material 356] | K (Log of liquid dish neat product liquid-air partition coefficient greater than or equal to 7) |  |
| CC(O)C(C)/C=C1\C[C@H]2C[C@@H]1[C@@H]1C=CC[C@H]21 (some centres unmarked) [Material 359] | K (Log of liquid dish neat product liquid-air partition coefficient greater than or equal to 7) | K (Log of liquid dish neat product liquid-air partition coefficient greater than or equal to 7) |
